Drawing on PubChem BioAssay (NCI), this text covers GI50 and TGI for 8 compounds.

Molecules are shown by their SMILES.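 96-well plates; 48 h exposure; 5 concentrations. Endpoints by linear interpolation between flanking doses. Not reached: highest tested concentration assigned. At the GI50, growth is halved. At the TGI there is no net growth.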 A value given as a limit tells only on which side of the number the result lay.

Some test systems named below: TK-10 renal; RXF 393 renal; HT29 colon; OVCAR-4 ovarian; SN12C renal; UACC-62 melanoma; SK-OV-3 ovarian; A498 renal; PC-3 prostate; HOP-62 NSCLC.
Holding throughout (assay): NCI anticancer screen, dose series, 48 h

Regarding `Nc1nc(=O)n(C2CC(O)C(CO)O2)cc1F` (stereo not drawn), the GI50 is greater than 100 µM in the experiment on TK-10 renal; greater than 57.8 µM in the experiment on RXF 393 renal; less than 0.0489 µM with HT29 colon; 47.7 µM in the experiment with OVCAR-4 ovarian; 0.199 µM in the experiment with SN12C renal; less than 0.0473 µM in the experiment with UACC-62 melanoma. Also, the figures for the GI50 in the experiment with SK-OV-3 ovarian, with A498 renal and with PC-3 prostate were greater than 100 µM, 0.046 µM and 1.47 µM, respectively. For the same compound, the TGI in the experiment on TK-10 renal is greater than 100 µM; with RXF 393 renal, greater than 100 µM; with HT29 colon, greater than 100 µM; with OVCAR-4 ovarian, greater than 100 µM; with SN12C renal it was greater than 25.8 µM; with UACC-62 melanoma, greater than 100 µM. For the same compound, the TGI with SK-OV-3 ovarian, in the experiment on A498 renal, with PC-3 prostate and in the experiment with HOP-62 NSCLC was greater than 100 µM each time.

In the case of `N#Cc1ncc(C(Cl)Cl)nc1Cl`, the TGI is 3.82 µM with TK-10 renal; 3.39 µM with RXF 393 renal; 3.16 µM in the experiment on HT29 colon; 3.31 µM in the experiment on OVCAR-4 ovarian; 3.79 µM with SN12C renal; 5.9 µM in the experiment with UACC-62 melanoma. For the same compound, the TGI with SK-OV-3 ovarian was greater than 10 µM; in the experiment on A498 renal, greater than 10 µM; with PC-3 prostate it was 3.62 µM; with HOP-62 NSCLC, greater than 8.07 µM.

Turning to `C[C@H]1CCC/C=C/C2CC(OC(=O)CN(C)C)CC2C(OC(=O)CN(C)C)/C=C/C(=O)O1` (stereo partly drawn), the GI50 in the experiment on TK-10 renal is 0.318 µM; with RXF 393 renal, 0.0972 µM; in the experiment on HT29 colon, 0.342 µM; with OVCAR-4 ovarian, 0.349 µM; in the experiment on SN12C renal, 0.391 µM; with UACC-62 melanoma it was 0.443 µM. In addition, the GI50 was 0.237 µM in the experiment on SK-OV-3 ovarian, 0.0508 µM in the experiment with A498 renal, 0.261 µM in the experiment on PC-3 prostate and 2.51 µM in the experiment with HOP-62 NSCLC. Besides, the TGI with TK-10 renal is 17.9 µM; in the experiment with RXF 393 renal, 0.314 µM; in the experiment on HT29 colon, 3.8 µM; in the experiment on OVCAR-4 ovarian it was 34.2 µM; with SN12C renal, 8.33 µM; in the experiment on UACC-62 melanoma, greater than 65.4 µM. Besides, the TGI was 0.282 µM in the experiment on A498 renal, greater than 100 µM with PC-3 prostate and 23.2 µM in the experiment with HOP-62 NSCLC.

`Cc1nnc(C[C@@H]2C=C(c3ccc(Cl)cc3)c3ccccc3-n3c(C)nnc32)o1`: the GI50 with TK-10 renal is 0.148 µM; with RXF 393 renal, 1.39 µM; with HT29 colon, 0.241 µM; with OVCAR-4 ovarian, 1.29 µM; with SN12C renal it was 12 µM; in the experiment with UACC-62 melanoma it was 0.118 µM. Also, the GI50 in the experiment with SK-OV-3 ovarian was 0.262 µM; in the experiment with A498 renal, 0.712 µM; in the experiment with PC-3 prostate, 3.53 µM; in the experiment with HOP-62 NSCLC it was 0.318 µM. Further, the TGI was 27.1 µM with TK-10 renal; 18.9 µM in the experiment on RXF 393 renal; greater than 100 µM with HT29 colon; greater than 100 µM in the experiment with OVCAR-4 ovarian; greater than 100 µM in the experiment on SN12C renal; 18.9 µM in the experiment with UACC-62 melanoma. For the same compound, the TGI in the experiment on SK-OV-3 ovarian was 12 µM; in the experiment with A498 renal it was 12.7 µM; in the experiment on PC-3 prostate, greater than 100 µM; in the experiment on HOP-62 NSCLC, greater than 90.4 µM.

Take `COC(=O)c1cc(-c2ccc3ccccc3c2)[nH]c(=O)c1C#N`: the TGI in the experiment on TK-10 renal, in the experiment with RXF 393 renal, with HT29 colon, in the experiment on OVCAR-4 ovarian, in the experiment with SN12C renal and with UACC-62 melanoma was greater than 100 µM throughout. Moreover, the TGI with SK-OV-3 ovarian, with A498 renal, in the experiment on PC-3 prostate and in the experiment on HOP-62 NSCLC was greater than 100 µM each time.

Consider `CC/C=C\C[C@H]1C/C=C2/C(=O)C=C[C@H]2C/C=C\CCCC(=O)O1`, for which the GI50 is 2.54 µM in the experiment with TK-10 renal; 1.91 µM with RXF 393 renal; 1.85 µM in the experiment with HT29 colon; 2.81 µM in the experiment with OVCAR-4 ovarian; 2.62 µM in the experiment with SN12C renal; 1.78 µM with UACC-62 melanoma. Also, the GI50 is 5.67 µM in the experiment on SK-OV-3 ovarian, 7.21 µM with A498 renal, 3.13 µM in the experiment with PC-3 prostate and 2.09 µM in the experiment with HOP-62 NSCLC. The TGI is 8.01 µM in the experiment on TK-10 renal; 8.01 µM with RXF 393 renal; 6.15 µM in the experiment on HT29 colon; 9.73 µM in the experiment with OVCAR-4 ovarian; greater than 50 µM in the experiment on SN12C renal; 7.94 µM in the experiment on UACC-62 melanoma. Further, the TGI with SK-OV-3 ovarian amounted to 13.1 µM; in the experiment with A498 renal, 14.4 µM; with PC-3 prostate, 12.1 µM; in the experiment on HOP-62 NSCLC it was 7.72 µM.

Consider `Cc1cc(S(=O)(=O)/N=C(\N)Nc2cccc(O)c2)c(SCc2ccccc2)cc1Cl`, for which the GI50 is 21.2 µM with TK-10 renal; 16.2 µM in the experiment on RXF 393 renal; 20.6 µM with HT29 colon; 12.1 µM in the experiment with OVCAR-4 ovarian; 17.6 µM with SN12C renal; 14.1 µM in the experiment on UACC-62 melanoma. Further, the GI50 is 19.1 µM in the experiment on SK-OV-3 ovarian, 17.8 µM in the experiment on A498 renal, 12.1 µM in the experiment with PC-3 prostate and 15.1 µM with HOP-62 NSCLC. Further, the TGI in the experiment on TK-10 renal was determined as 49.5 µM; with RXF 393 renal, 39.9 µM; in the experiment with HT29 colon, 43.9 µM; in the experiment with OVCAR-4 ovarian it was 45.1 µM; in the experiment on SN12C renal, 38.2 µM; in the experiment with UACC-62 melanoma, 30.2 µM. Further, the TGI in the experiment with SK-OV-3 ovarian is 37.9 µM; with A498 renal, 35.7 µM; in the experiment on PC-3 prostate, greater than 100 µM; in the experiment on HOP-62 NSCLC, 31.7 µM.

Consider `Cc1cc(F)c(C(=O)Nc2cccc(-c3nncn3C(C)C)n2)cc1-n1cnc(C2CC2)c1`, for which the GI50 is 8.12 µM in the experiment with TK-10 renal; 20.6 µM with RXF 393 renal; 18.2 µM in the experiment on HT29 colon; 13.1 µM in the experiment on OVCAR-4 ovarian; 15.6 µM with SN12C renal; 14.1 µM with UACC-62 melanoma. Further, the GI50 in the experiment on SK-OV-3 ovarian was 24.5 µM; in the experiment on A498 renal, 14.2 µM; with PC-3 prostate, 16.6 µM; in the experiment on HOP-62 NSCLC it was 16.6 µM. The TGI with TK-10 renal is 92.5 µM; in the experiment with RXF 393 renal, 49.1 µM; in the experiment with HT29 colon it was greater than 100 µM; in the experiment with OVCAR-4 ovarian, 97 µM; with SN12C renal, 62.4 µM; in the experiment with UACC-62 melanoma, 48 µM. In addition, the TGI with SK-OV-3 ovarian is greater than 100 µM; in the experiment on A498 renal, 62.6 µM; in the experiment on PC-3 prostate, 92.4 µM; in the experiment on HOP-62 NSCLC it was 58.8 µM.
